According to patent US9758485B2, “Compounds for controlling arthropods” (priority 2013, dated 2017):
Read-outs that look alike come from different tables or passages of the source.

Test: logP determination by HPLC on a reversed-phase column (C18), EEC Directive 79/831 Annex V.A8
Type: physicochemical
Conditions: for logP^a): HPLC-MS method a), Table I-T3
[1] = reversed-phase HPLC column (C18), HPLC, reversed-phase C18, acetonitrile/water with formic acid, 55° C., read-out: logP
[2] = HPLC-MS, reversed-phase column (C18)
[3] = reversed-phase HPLC column (C18), HPLC-MS method a), reversed-phase column (C18); read-out: logP^a)
[4] = reversed-phase HPLC column (C18), HPLC-MS, reversed-phase column (C18), read-out: log P

Row | chromatographic logP [1] | SMILES | log P [2] | also measured
1 | 1.92 | NNc1c(Cl)cc(C(O)(C(F)(F)F)C(F)(F)F)cc1Cl [2-(3,5-dichloro-4-hydrazinophenyl)-1,1,1,3,3,3-hexafluoropropan-2-ol] | – | –
2 | 4.74 | FC(F)(F)C(F)(c1cnc(-n2cc(Br)cn2)c(Cl)c1)C(F)(F)F [2-(4-bromo-1H-pyrazol-1-yl)-3-chloro-5-(1,1,1,2,3,3,3-heptafluoropropan-2-yl)pyridine] | – | –
3 | 4.38 | Cc1cc(C(F)(C(F)(F)F)C(F)(F)F)cc(Br)c1N [2-bromo-6-methyl-4-heptafluoroisopropylaniline] | – | –
4 | 4.67 | CCc1cc(C(F)(C(F)(F)F)C(F)(F)F)cc(Cl)c1N [2-chloro-6-ethyl-4-heptafluoroisopropylaniline] | – | –
5 | 4.67 | Cc1cc(C(F)(C(F)(F)F)C(F)(F)F)cc(C(F)(F)F)c1N [4-heptafluoroisopropyl-2-methyl-6-trifluoromethylaniline] | – | –
6 | – | Cc1cc(C(F)(C(F)(F)F)C(F)(F)F)cc(C)c1-n1cc(-c2cc(C(=O)NC3CC3)c(Cl)cc2F)cn1 [I-T3-14] | – | logP^a): 4.5
7 | – | N#CC1(NC(=O)c2cccc(-c3cnn(-c4c(Cl)cc(C(F)(C(F)(F)F)C(F)(F)F)cc4Cl)c3)c2F)CC1 [I-T3-22] | – | logP^a): 4.1
8 | – | O=C(NC1CC1)c1cccc(-c2cnn(-c3ncc(C(F)(F)F)cc3Cl)c2)c1 [I-T3-122] | 3.0 | –
9 | – | CN(C(=O)c1cc(-c2cnn(-c3ccc(C(F)(C(F)(F)F)C(F)(F)F)cc3C(F)(F)F)c2)ccc1Cl)C1CC1 [I-T3-134] | 4.9 | –
10 | – | O=C(NC1CC1)c1cc(-c2cnn(-c3ncc(C(F)(C(F)(F)F)C(F)(F)F)cc3Cl)c2)ccc1Cl [I-T3-152] | 4.1 | –
11 | – | CC[S+]([O-])c1cc(C(F)(C(F)(F)F)C(F)(F)F)cnc1-n1cc(-c2ccc(Cl)c(C(=O)NC3(C#N)CC3)c2)cn1 (stereo not shown) [I-T3-153] | 3.7 | –
12 | 4.69 | CCSc1cc(C(F)(C(F)(F)F)C(F)(F)F)cnc1-n1cc(-c2ccc(Cl)c(C(=O)NC3CC3)c2)cn1 [I-T3-156, 2-Chloro-N-cyclopropyl-5-{1-[3-(ethylsulphanyl)-5-(1,1,1,2,3,3,3-heptafluoropropan-2-yl)pyridin-2-yl]-1H-pyrazol-4-yl}benzamide] | – | chromatographic logP [3]: 4.7; chromatographic logP [4]: 4.7
13 | 3.79 | CC[S+]([O-])c1cc(C(F)(C(F)(F)F)C(F)(F)F)cnc1-n1cc(-c2ccc(Cl)c(C(=O)NC3CC3)c2)cn1 (stereo not shown) [I-T3-157, 2-Chloro-N-cyclopropyl-5-{1-[3-(ethylsulphinyl)-5-(1,1,1,2,3,3,3-heptafluoropropan-2-yl)pyridin-2-yl]-1H-pyrazol-4-yl}benzamide] | – | chromatographic logP [3]: 3.8; chromatographic logP [4]: 3.8
14 | – | NC(=S)C1(NC(=O)c2cc(-c3cnn(-c4c(Cl)cc(C(F)(C(F)(F)F)C(F)(F)F)cc4C(F)(F)F)c3)cnc2Cl)CC1 [I-T3-159] | 3.8 | –
15 | – | CSc1cc(C(F)(C(F)(F)F)C(F)(F)F)cnc1-n1cc(-c2ccc(Cl)c(C(=O)NC3(C#N)CC3)c2)cn1 [I-T3-166] | 4.3 | –
16 | – | N#CC1(NC(=O)c2cc(-c3cnn(-c4c(Cl)cc(C(F)(F)F)cc4[N+](=O)[O-])c3)ccc2Cl)CC1 [I-T3-169] | 3.2 | –
17 | – | CCSc1cc(C(F)(F)F)cc(Cl)c1-n1cc(-c2ccc(Cl)c(C(=O)NC3(C#N)CC3)c2)cn1 [I-T3-170] | 3.7 | –
18 | – | N#CC1(NC(=O)c2cc(-c3cnn(-c4ncc(C(F)(C(F)(F)F)C(F)(F)F)cc4SCC(F)(F)F)c3)ccc2Cl)CC1 [I-T3-171] | 4.5 | –
19 | – | CCSc1cc(C(F)(F)F)cc(Cl)c1-n1cc(-c2ccc(Cl)c(C(=O)NC3CC3)c2)cn1 [I-T3-172] | 3.9 | –
20 | – | N#Cc1cc(C(F)(F)F)cc(Cl)c1-n1cc(-c2ccc(Cl)c(C(=O)NC3CC3)c2)cn1 [I-T3-174] | 3.1 | –

Row | SMILES | chromatographic logP [1] | log P [2] | also measured
21 | O=C(NC1CC1)c1cc(-c2cnn(-c3ncc(C(F)(C(F)(F)F)C(F)(F)F)cc3Cl)c2)ccc1Cl [2-chloro-5-{1-[3-chloro-5-(1,1,1,2,3,3,3-heptafluoropropan-2-yl)pyridin-2-yl]-1H-pyrazol-4-yl}-N-cyclopropylbenzamide] | 4.08 | – | –
